The values below come from patent publication US20120115793A1, “PEPTIDOMIMETIC MACROCYCLES” (Alleron Therapeutics, Inc, priority 2008, published 2012).

For orientation: EC50 means the concentration giving half of the maximal effect.

Data set [1] concerns human serum proteins (HSA). The data set is described as follows: Apparent affinity to human serum proteins (Kd*) by EC50 shift analysis. Format: in vitro ADME. An excerpt:
The measurement of apparent Kd values for serum protein by EC50 shift analysis provides a simple and rapid means of quantifying the propensity of experimental compounds to bind HSA and other serum proteins. A linear relationship exists between the apparent EC50 in the presence of serum protein (EC'50) and the amount of serum protein added to an in vitro assay. This relationship is defined by the binding affinity of the compound for serum proteins, expressed as Kd*. This term is an experimentally determined, apparent dissociation constant that may result from the cumulative effects of multiple, experimentally indistinguishable, binding events. The form of this relationship is presented here in Eq. 0.3, and its derivation can be found in Copeland et al, Biorg. Med. Chem. Lett. 2004, 14:2309-2312.
A significant proportion of serum protein binding can be ascribed to drug interactions with HSA, due to the very high concentration of this protein in serum (35-50 g/L or 530-758 μM). To calculate the Kd value for these compounds we have assumed that the shift in EC50 upon protein addition can be ascribed fully to the HSA present in the added serum, where P is 700 μM for 100% serum, P is 70 μM for 10% serum, etc. We further made the simplifying assumption that all of the compounds bind HSA with a 1:1 stoichiometry, so that the term n in Eq. (0.3) is fixed at unity. With these parameters in place we calculated the Kd* value for each stapled peptide from the changes in EC50 values with increasing serum (and serum protein) concentrations by nonlinear regression analysis of Eq. 0.3 using Mathematica 4.1 (Wolfram Research, Inc., www.wolfram.com). EC'50 values in whole blood are estimated by setting P in Eq. 0.3 to 700 μM [HSA].
The free fraction in blood is estimated using the following equation, as derived by Trainor, Expert Opin. Drug Disc., 2007, 2(1):51-64, where [HSA] total is set at 700 μM.
The following macrocycles derived from the human MAML peptide sequences were tested in cell viability assays (described above) with the MOLT-4 tumor cell line at a range of human serum protein concentrations to determine their apparent affinity to human serum proteins and the projected EC50s in whole human blood: […]

Data set [2] deals with Molt-4 cell line. Format: cell-based. To be noted: 48 h. Here is the method:
Molt-4 cell line (ATCC catalog #CRL-1582) was grown in specific serum-supplemented media (RPMI-1640, Invitrogen catalog #72400) as recommended by ATCC. A day prior to the initiation of the study, cells were split at optimal cell density (2×10^5-5×10^5 cells/ml) to assure actively dividing cells. The next day, cells were washed twice in serum-free Opti-MEM media (Invitrogen, Catalog #51985) and cells were then plated at optimal cell density (10,000 cells/well) in 50 μl Opti-MEM media or Opti-MEM supplemented with 2%, 4% or 10% human serum (Bioreclamation, catalog #HMSRM) in 96-well white tissue culture plate (Nunc, catalog #136102).
For serum free experiment, peptidomimetic macrocycles were diluted from 2 mM stocks (100% DMSO) in sterile water to prepare 400 μM working solutions. The macrocycles and controls were diluted 10-fold first and then serially two-fold diluted in Opti-MEM in dosing plates to provide concentrations of between 1.2 and 40 μM. 50 μL of each dilution was then added to the appropriate wells of the test plate to achieve final concentrations of the polypeptides equal to between 0.6 to 20 μM. For studies using Opti-MEM supplemented with human serum (Bioreclamation, catalog #HMSRM), peptidomimetic macrocycles were diluted from 10 mM stocks (100% DMSO) in sterile water to prepare 2 mM working solutions. The peptide macrocycles and controls were diluted 10-fold first and then serially two-fold diluted in Opti-MEM in the presence of 2%, 4% or 10% of human serum to provide concentrations of the polypeptides equal to between 6.25 to 200 μM in dosing plates. 50 μL of each dilution was then added to the appropriate welts of the test plate to achieve final concentrations of the polypeptides equal to between 3.125 to 100 μM. Controls included wells without polypeptides containing the same concentration of DMSO as the wells containing the macrocycles, wells containing 0.1% Triton X-100 and wells containing no cells. Plates were incubated for 48 hours at 37° C. in humidified 5% CO2 atmosphere.
At the end of the incubation period, CellTiter-Glo assay was performed according to manufacturer's instructions (Promega, catalog #G7573) and luminescence was measured using Synergy HT Plate reader (BioTek).
The following macrocycles derived from the human MAML peptide sequences were tested in cell viability assays with the MOLT-4 tumor cell line: […]

Like-named read-outs stand apart in the source and are kept apart here. Where a SMILES comes first, the peptide text is derived from it. Bridges are numbered along the chain shown (N, C = ends). [ ]: non-standard residue; d: D form. S5 = C=CCCC[C@](C)(N)C(=O)O; Abu = CC[C@H](N)C(=O)O Where only a bound is given, the exact number is not on record here.

For the compound `CC[C@H](C)[C@H](NC(=O)[C@H](CCCNC(=N)N)NC(=O)[C@H](CCCNC(=N)N)NC(=O)[C@H](CCCNC(=N)N)NC(=O)[C@H](CC(C)C)NC(=O)[C@H](CCCNC(=N)N)NC(=O)[C@H](CCC(=O)O)NC(C)=O)C(=O)N[C@@]1(C)CCCC=CCCC[C@@](C)(C(=O)N[C@@H](Cc2c[nH]cn2)C(=O)N[C@@H](Cc2c[nH]cn2)C(=O)N[C@@H](CO)C(=O)N[C@H](C(N)=O)[C@@H](C)O)NC(=O)[C@H](CCCNC(=N)N)NC(=O)[C@H](C)NC(=O)[C@H](CC(C)C)NC1=O` [Compound 4, Ac-ERLRRRI$LAR$HHST-NH2] (Ac-ERLRRRI[S5]LAR[S5]HHST-NH2; staple 8-12), in data set [1] (human), the Kd is < 100 nM. Further, the fraction unbound in data set [1] (human, serum) was < 0.001. The EC50 in data set [2] is > 20000 nM.
Turning to `CC[C@H](C)[C@H](NC(=O)[C@H](CCCNC(=N)N)NC(=O)[C@H](CCCNC(=N)N)NC(=O)[C@H](CCCNC(=N)N)NC(=O)[C@H](CC(C)C)NC(=O)[C@H](C)NC(C)=O)C(=O)N[C@@]1(C)CCCC=CCCC[C@@](C)(C(=O)N[C@@H](Cc2c[nH]cn2)C(=O)N[C@@H](Cc2c[nH]cn2)C(=O)N[C@@H](CO)C(=O)N[C@H](C(N)=O)[C@@H](C)O)NC(=O)[C@H](C)NC(=O)[C@H](CS)NC(=O)[C@H](CC(C)C)NC1=O` [Compound 19, Ac-ALRRRI$LCA$HHST-NH2] (Ac-ALRRRI[S5]LCA[S5]HHST-NH2; staple 7-11), the fraction unbound in data set [1] (human, estimated with [HSA] total set at 700 μM, read-out: Free Fraction est. in blood) is 0.001. The Kd in data set [1] (nonlinear regression of EC50 shift with increasing human serum, 1:1 HSA binding assumed, 700 μM HSA for 100% serum, read-out: Serum Kd*) turned out to be 600 nM.
Take `CC[C@H](C)[C@H](NC(=O)[C@H](CCCNC(=N)N)NC(=O)[C@H](CCCNC(=N)N)NC(=O)[C@H](CCCNC(=N)N)NC(=O)[C@H](CC(C)C)NC(=O)[C@H](CCCNC(=N)N)NC(=O)[C@H](CCC(=O)O)NC(C)=O)C(=O)N[C@@]1(C)CCCC=CCCC[C@@](C)(C(=O)N[C@@H](Cc2c[nH]cn2)C(=O)N[C@@H](Cc2c[nH]cn2)C(=O)N[C@@H](CO)C(=O)N[C@H](C(N)=O)[C@@H](C)O)NC(=O)[C@H](CCCNC(=N)N)NC(=O)[C@H](CS)NC(=O)[C@H](CC(C)C)NC1=O` [Compound 1, Ac-ERLRRRI$LCR$HHST-NH2] (Ac-ERLRRRI[S5]LCR[S5]HHST-NH2; staple 8-12): the Kd in data set [1] (human) was < 100 nM. Besides, the fraction unbound in data set [1] (human, serum) is < 0.001.
Regarding `CC[C@H](C)[C@H](NC(=O)[C@H](CCCNC(=N)N)NC(=O)[C@H](CCCNC(=N)N)NC(=O)[C@H](CCCNC(=N)N)NC(=O)[C@H](CC(C)C)NC(=O)[C@H](CCCNC(=N)N)NC(=O)[C@H](CCC(=O)O)NC(C)=O)C(=O)N[C@@]1(C)CCCC=CCCC[C@@](C)(C(=O)N[C@@H](Cc2c[nH]cn2)C(=O)N[C@@H](Cc2c[nH]cn2)C(=O)N[C@@H](CO)C(=O)N[C@H](C(=O)N[C@@H](CS)C(=O)N[C@@H](CCC(=O)O)C(=O)N[C@@H](C)C(=O)N[C@@H](CCCNC(=N)N)C(=O)N[C@@H](Cc2ccc(O)cc2)C(=O)N[C@@H](CCC(=O)O)C(=O)N[C@@H](C)C(=O)N[C@H](C(N)=O)C(C)C)[C@@H](C)O)NC(=O)[C@H](CCCNC(=N)N)NC(=O)[C@H](CS)NC(=O)[C@H](CC(C)C)NC1=O` [Compound 15, Ac-ERLRRRI$LCR$HHSTCEARYEAV-NH2] (Ac-ERLRRRI[S5]LCR[S5]HHSTCEARYEAV-NH2; staple 8-12), the EC50 in data set [2] worked out at 2200 nM.
The same measure, in the same setting: then `CC[C@@H]1NC(=O)[C@H](CC(C)C)NC(=O)[C@@](C)(NC(=O)[C@@H](NC(=O)[C@H](CCCNC(=N)N)NC(=O)[C@H](CCCNC(=N)N)NC(=O)[C@H](CCCNC(=N)N)NC(=O)[C@H](CC(C)C)NC(=O)[C@H](C)NC(=O)[C@H](CCCNC(=N)N)NC(C)=O)[C@@H](C)CC)CCCC=CCCC[C@@](C)(C(=O)N[C@@H](Cc2c[nH]cn2)C(=O)N[C@@H](Cc2c[nH]cn2)C(=O)N[C@@H](CO)C(=O)N[C@H](C(N)=O)[C@@H](C)O)NC(=O)[C@H](C)NC1=O` [Compound 31, Ac-RALRRRI$LAbuA$HHST-NH2] (Ac-RALRRRI[S5]L[Abu]A[S5]HHST-NH2; staple 8-12), with 3700 nM.
On the same count and under the same terms, the value for `CC[C@H](C)[C@H](NC(=O)[C@H](CCCNC(=N)N)NC(=O)[C@H](CCCNC(=N)N)NC(=O)[C@H](CCCNC(=N)N)NC(=O)[C@H](CC(C)C)NC(=O)[C@H](CCCNC(=N)N)NC(=O)[C@H](CCC(=O)O)NC(C)=O)C(=O)N[C@@H](CCC(=O)O)C(=O)N[C@@H](CC(C)C)C(=O)N[C@@H](C)C(=O)N[C@@H](C)C(=O)N[C@@H](CCCNC(=N)N)C(=O)N[C@@H](Cc1c[nH]cn1)C(=O)N[C@@H](Cc1c[nH]cn1)C(=O)N[C@@]1(C)CCCC=CCCC[C@@](C)(C(=O)N[C@@H](CCCNC(=N)N)C(=O)N[C@@H](Cc2ccc(O)cc2)C(=O)N[C@@H](CCC(=O)O)C(=O)N[C@@H](C)C(=O)N[C@H](C(N)=O)C(C)C)NC(=O)[C@H](CCC(=O)O)NC(=O)[C@H](C)NC(=O)[C@H]([C@@H](C)O)NC1=O` [Compound 22, Ac-ERLRRRIELAARHH$TAE$RYEAV-NH2] (Ac-ERLRRRIELAARHH[S5]TAE[S5]RYEAV-NH2; staple 15-19) was > 20000 nM.
